Assay results: patent publication US20220184015A1, “COMPOSITIONS AND METHODS TO POTENTIATE MUSCULOSKELETAL EFFECT OF ONE OR MORE ANABOLIC AMINO ACIDS ON BONE HEALTH” (SOCIETE DES PRODUITS NESTLE S.A., priority 2019, published 2022)

Assays:
Assay type in all cases: in vivo
[1] = tested on: LC3 protein fused to ZsGreen under the control of a skeletal muscle specific promoter; test: zebrafish autophagy reporter, number of LC3 punctae in larvae; details: for effect on basal autophagy: summary statement referring to the experimental data; for autophagy activation by individual amino acids (FIG. 1) / autophagy activation by individual amino acids (FIG. 3) / autophagy activation by individual amino acids (FIG. 2): zebrafish larvae, 0.25 to 10 mM, 16 hours of treatment
Source text: Z stack images were captured for each larva and maximal projection images were produced. Number of LC3 punctae have been calculated with MetaXpress software (Moleculare Devices) and normalized by fish area.

bone mineral density = bone mineral density in old mice after 3 months; details: old mice (78 weeks old), thymol by gavage, AA mix in water, FIG. 6a
Source text: (§1) Assessment of the long term (3 months) effect of thymol (an exemplary autophagy-inducing agent) and an amino acid mix, known as autophagy inducers, alone or in combination, on muscle function in old mice. […] Old mice (78 weeks old; n=12/group; inventions) were taking 1) thymol (compound 1); 2) an amino acid (AA) mix and thymol (compounds 2 and 1); or 3) the AA mix (compound 2). In the experiments, thymol was given by gavage; the AA mix was given in water; and alanine for isonitrogenous was given as a control to young mice (Adult). Old untreated mice were also used as another control (old untreated). The AA mix comprises 28.67% of Leucine, 14.29% of Isoleucine, 14.29% of Valine, 12.21% of Proline, 12.21% of Glycine, 14.84% of Lysine and 3.48% of Cysteine (See Table 1).

bone stiffness = bone stiffness (bone strength) in old mice after 3 months; details: old mice (78 weeks old), thymol by gavage, AA mix in water, FIG. 6b
Source text: as §1

N=C(N)NCCC[C@H](N)C(=O)O [Arginine]
effect on basal autophagy [1]: reduce basal autophagy
autophagy activation by individual amino acids (FIG. 1) [1]: show at least some autophagy activation effects
autophagy activation by individual amino acids (FIG. 3) [1]: shows less autophagy activation effects

NC(=O)C[C@H](N)C(=O)O [Asparagine]
autophagy activation by individual amino acids (FIG. 1) [1]: show at least some autophagy activation effects

N[C@@H](CS)C(=O)O [Cysteine]
autophagy activation by individual amino acids (FIG. 1) [1]: show at least some autophagy activation effects
autophagy activation by individual amino acids (FIG. 2) [1]: show autophagy activation effects

N[C@@H](CCC(=O)O)C(=O)O [Glutamate]
autophagy activation by individual amino acids (FIG. 1) [1]: show at least some autophagy activation effects
autophagy activation by individual amino acids (FIG. 3) [1]: show clear autophagy activation effects

NC(=O)CC[C@H](N)C(=O)O [Glutamine]
effect on basal autophagy [1]: reduce basal autophagy

NCC(=O)O [Glycine]
autophagy activation by individual amino acids (FIG. 1) [1]: show at least some autophagy activation effects
autophagy activation by individual amino acids (FIG. 2) [1]: show autophagy activation effects

CC[C@H](C)[C@H](N)C(=O)O [Isoleucine]
effect on basal autophagy [1]: reduce basal autophagy

CC(C)C[C@H](N)C(=O)O [Leucine]
effect on basal autophagy [1]: reduce basal autophagy
autophagy activation by individual amino acids (FIG. 2) [1]: does not show any autophagy activation effect

N[C@@H](Cc1ccccc1)C(=O)O [Phenylalanine]
autophagy activation by individual amino acids (FIG. 1) [1]: show at least some autophagy activation effects

O=C(O)[C@@H]1CCCN1 [Proline]
autophagy activation by individual amino acids (FIG. 1) [1]: show at least some autophagy activation effects
autophagy activation by individual amino acids (FIG. 3) [1]: show clear autophagy activation effects

N[C@@H](Cc1ccc(O)cc1)C(=O)O [Tyrosine]
autophagy activation by individual amino acids (FIG. 1) [1]: show at least some autophagy activation effects

CC(C)[C@H](N)C(=O)O [Valine]
autophagy activation by individual amino acids (FIG. 1) [1]: show at least some autophagy activation effects
autophagy activation by individual amino acids (FIG. 2) [1]: show autophagy activation effects

Cc1ccc(C(C)C)c(O)c1 [thymol]
increase in bone mineral density as compared with the control of the old untreated (bone mineral density): 1.6%
increase in bone stiffness as compared with the control of the old untreated (bone stiffness): 12%
